This test has as its system CD2F1 mice, L1210 leukemia ip, survival T/C. Description: NCI In Vivo Anticancer Drug Screen. Data for tumor model L1210 Leukemia (intraperitoneal) in CD2F1 (CDF1) mice. To be noted: higher = longer survival. The procedure, abridged:
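Activity against a transplanted murine tumor was judged by comparing the compound group with a vehicle group. The outcome in the treated animals was divided by that in the controls.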

[1] abbreviates: endpoint: mean survival time, dose: 25.0 mg/kg/injection, schedule: Q04DX002 (ip), vehicle: saline with Tween-80.
Setting [2] is: endpoint: mean survival time, dose: 50.0 mg/kg/injection, schedule: Q04DX002 (ip), vehicle: saline with Tween-80.
[3] abbreviates: endpoint: mean survival time, dose: 100.0 mg/kg/injection, schedule: Q04DX002 (ip), vehicle: saline with Tween-80.
The mark [4] stands for this setting: endpoint: mean survival time, dose: 100.0 mg/kg/injection, schedule: Q04DX003 (ip), vehicle: saline with Tween-80.
Where [5] appears, read: endpoint: mean survival time, dose: 200.0 mg/kg/injection, schedule: Q04DX003 (ip), vehicle: saline with Tween-80.
Where [6] appears, read: endpoint: mean survival time, dose: 400.0 mg/kg/injection, schedule: Q04DX003 (ip), vehicle: saline with Tween-80.
[7] abbreviates: endpoint: mean survival time, dose: 25.0 mg/kg/injection, schedule: Q04DX003 (ip), vehicle: saline with Tween-80.
The mark [8] stands for this setting: endpoint: mean survival time, dose: 50.0 mg/kg/injection, schedule: Q04DX003 (ip), vehicle: saline with Tween-80.
Setting [9] is: endpoint: mean survival time, dose: 100.0 mg/kg/injection, schedule: Q04DX003 (ip), vehicle: saline.
Setting [10] is: endpoint: mean survival time, dose: 200.0 mg/kg/injection, schedule: Q04DX003 (ip), vehicle: saline.
[11] abbreviates: endpoint: mean survival time, dose: 400.0 mg/kg/injection, schedule: Q04DX003 (ip), vehicle: saline.
The mark [12] stands for this setting: endpoint: mean survival time, dose: 25.0 mg/kg/injection, schedule: Q01DX009 (ip), vehicle: saline with Tween-80.
The mark [13] stands for this setting: endpoint: mean survival time, dose: 50.0 mg/kg/injection, schedule: Q01DX009 (ip), vehicle: saline with Tween-80.
Setting [14] is: endpoint: mean survival time, dose: 100.0 mg/kg/injection, schedule: Q01DX009 (ip), vehicle: saline with Tween-80.

Values joined by “and” are separate entries in the source; they are usually repeats but may differ in a detail not shown here. Equal entries are not always repeated. Inconclusive results and toxic doses are left out.

As for `CSc1ncnc2c1C[P+](Cc1ccccc1)(c1ccccc1)CC2` (configuration not stated), the T/C is 101 % of control under setting [1], 101 % of control under setting [2] and 101 % of control under setting [3].
`CCCCNC(=O)/C=C\C(=O)O`: the T/C under setting [4] was 97 % of control, the T/C under setting [5] was 100 % of control and the T/C under setting [6] was 100 % of control.
In the case of `Oc1cc2c3c(c1)c1cc4c(cc1c[n+]3CC2)OCO4`, the T/C is 115 % of control (endpoint: mean survival time, dose: 3.13 mg/kg/injection, schedule: Q01DX009 (ip), vehicle: other); 124 % of control (endpoint: mean survival time, dose: 3.13 mg/kg/injection, schedule: Q01DX009 (ip), vehicle: water); 122 % of control (endpoint: mean survival time, dose: 12.5 mg/kg/injection, schedule: Q01DX009 (ip), vehicle: water); 115 % of control (endpoint: mean survival time, dose: 25.0 mg/kg/injection, schedule: Q01DX009 (ip), vehicle: other).
For the molecule `Oc1ccc(/C=N/N=C/c2ccc(O)c(O)c2)cc1O`, the T/C (endpoint: median survival time, dose: 25.0 mg/kg/injection, schedule: Q01DX009 (ip), vehicle: saline with Tween-80) was 108 % of control; the T/C (endpoint: median survival time, dose: 50.0 mg/kg/injection, schedule: Q01DX009 (ip), vehicle: saline with Tween-80) was 110 % of control; the T/C (endpoint: median survival time, dose: 100.0 mg/kg/injection, schedule: Q01DX009 (ip), vehicle: saline with Tween-80) was 112 % of control.
For the molecule `CCCCCCCCCCC(N)P(=O)(O)O` (configuration not stated), the T/C under setting [7] is 91 % of control and the T/C under setting [8] was 91 % of control.
For `COc1ccccc1NC(=O)CSC(N)=O`, the T/C is 98 % of control (endpoint: mean survival time, dose: 50.0 mg/kg/injection, schedule: Q01DX001 (ip), vehicle: saline); 97 % of control (endpoint: mean survival time, dose: 100.0 mg/kg/injection, schedule: Q01DX001 (ip), vehicle: saline); 102 % of control (endpoint: mean survival time, dose: 100.0 mg/kg/injection, schedule: Q01DX009 (ip), vehicle: saline); 94 % of control under setting [9]; 103 % of control (endpoint: mean survival time, dose: 200.0 mg/kg/injection, schedule: Q01DX001 (ip), vehicle: saline); 93 % of control (endpoint: mean survival time, dose: 200.0 mg/kg/injection, schedule: Q01DX009 (ip), vehicle: saline). Moreover, the T/C runs as follows: under setting [10], 91 % of control; (endpoint: mean survival time, dose: 400.0 mg/kg/injection, schedule: Q01DX001 (ip), vehicle: saline) 97 % of control; (endpoint: mean survival time, dose: 400.0 mg/kg/injection, schedule: Q01DX009 (ip), vehicle: saline) 96 % of control; under setting [11], 91 % of control.
`CC(=O)OC1(c2cc(C(F)(F)F)cc(C(F)(F)F)c2)C2CCC1CC2` (configuration not stated): the T/C was 101 % of control (endpoint: mean survival time, dose: 12.5 mg/kg/injection, schedule: Q04DX002 (ip), vehicle: saline with Tween-80); 97 % of control under setting [1]; 97 % of control under setting [2].
For `O=S1OCC2(CO1)COS(=O)OC2` (configuration not stated), the T/C (endpoint: mean survival time, dose: 3.13 mg/kg/injection, schedule: Q01DX001 (ip), vehicle: saline with Tween-80) is 108 % of control and the T/C (endpoint: mean survival time, dose: 6.25 mg/kg/injection, schedule: Q01DX001 (ip), vehicle: saline with Tween-80) is 100 % of control.
Consider `Oc1ccc2ccccc2c1NC(=S)Nc1ccccc1`, for which the T/C is, setting by setting: (endpoint: mean survival time, dose: 100.0 mg/kg/injection, schedule: Q04DX002 (ip), vehicle: Klucel (hydroxypropylcellulose) (HPC)) 97 % of control; (endpoint: mean survival time, dose: 200.0 mg/kg/injection, schedule: Q04DX002 (ip), vehicle: Klucel (hydroxypropylcellulose) (HPC)) 93 % of control; (endpoint: mean survival time, dose: 400.0 mg/kg/injection, schedule: Q04DX002 (ip), vehicle: Klucel (hydroxypropylcellulose) (HPC)) 93 % of control.
For `CCCCCCCCN(C)C`, the T/C reads like this: under setting [12], 91 % of control; under setting [13], 87 % of control.
For `Brc1nc(-c2ccccc2)cc(-c2ccccc2)c1-c1ccccc1`, the T/C was 90 % of control under setting [3]; 90 % of control (endpoint: mean survival time, dose: 200.0 mg/kg/injection, schedule: Q04DX002 (ip), vehicle: saline with Tween-80); 97 % of control (endpoint: mean survival time, dose: 400.0 mg/kg/injection, schedule: Q04DX002 (ip), vehicle: saline with Tween-80).
Consider `O=S(=O)(O)CN(CCN(CS(=O)(=O)O)CS(=O)(=O)O)CS(=O)(=O)O`, for which the T/C was 96 % of control (endpoint: mean survival time, dose: 100.0 mg/kg/injection, schedule: Q01DX009 (ip), vehicle: saline sonified); 109 % of control under setting [9]; 92 % of control (endpoint: mean survival time, dose: 200.0 mg/kg/injection, schedule: Q01DX009 (ip), vehicle: saline sonified); 97 % of control under setting [10]; 91 % of control (endpoint: mean survival time, dose: 400.0 mg/kg/injection, schedule: Q01DX009 (ip), vehicle: saline sonified); 97 % of control under setting [11].
For the molecule `CCCCNc1cc(=O)[nH]c(=O)[nH]1`, the T/C runs as follows: (endpoint: mean survival time, dose: 50.0 mg/kg/injection, schedule: Q01DX001 (ip), vehicle: saline with Tween-80) 104 % of control; (endpoint: mean survival time, dose: 100.0 mg/kg/injection, schedule: Q01DX001 (ip), vehicle: saline with Tween-80) 98 % of control; (endpoint: mean survival time, dose: 200.0 mg/kg/injection, schedule: Q01DX001 (ip), vehicle: saline with Tween-80) 102 % of control.
Take `BrCCCCCCCCCCC1(c2ccccc2)OCCO1`: the T/C by setting is: (endpoint: mean survival time, dose: 100.0 mg/kg/injection, schedule: Q04DX003 (ip), vehicle: Klucel (hydroxypropylcellulose) (HPC)) 90 % of control; (endpoint: mean survival time, dose: 200.0 mg/kg/injection, schedule: Q04DX003 (ip), vehicle: Klucel (hydroxypropylcellulose) (HPC)) 94 % of control; (endpoint: mean survival time, dose: 400.0 mg/kg/injection, schedule: Q04DX003 (ip), vehicle: Klucel (hydroxypropylcellulose) (HPC)) 95 % of control.
Take `CC(C)CC(Br)C(=O)NCC(=O)NC(Cc1ccccc1)C(=O)O` (configuration not stated): the T/C under setting [4] is 106 % of control, the T/C under setting [5] is 97 % of control and the T/C under setting [6] was 96 % of control.
For the molecule `CCOC(=O)C1(C2=NC(C)(C)CC(C)O2)CCCCC1` (configuration not stated), the T/C reads like this: (endpoint: mean survival time, dose: 100.0 mg/kg/injection, schedule: Q04DX003 (ip), vehicle: acetone) 96 % of control; (endpoint: mean survival time, dose: 200.0 mg/kg/injection, schedule: Q04DX003 (ip), vehicle: acetone) 90 % of control; (endpoint: mean survival time, dose: 400.0 mg/kg/injection, schedule: Q04DX003 (ip), vehicle: acetone) 105 % of control.
As to `CCN(CC)C1=C(Cl)C(=O)C(=O)c2cccnc21`, the T/C (endpoint: mean survival time, dose: 9.4 mg/kg/injection, schedule: Q01DX009 (ip), vehicle: saline) was 101 % of control.
As for `c1cc(-c2cc3ccc(C4=NCCN4)cc3[nH]2)ccc1C1=NCCN1`, the T/C is, setting by setting: (endpoint: mean survival time, dose: 3.12 mg/kg/injection, schedule: Q01DX009 (ip), vehicle: saline) 111 % of control; (endpoint: mean survival time, dose: 3.12 mg/kg/injection, schedule: Q01DX009 (ip), vehicle: suspension in saline) 112 % of control; (endpoint: mean survival time, dose: 6.25 mg/kg/injection, schedule: Q01DX009 (ip), vehicle: saline) 124 % of control; (endpoint: mean survival time, dose: 6.25 mg/kg/injection, schedule: Q01DX009 (ip), vehicle: suspension in saline) 118 % of control; (endpoint: mean survival time, dose: 12.5 mg/kg/injection, schedule: Q01DX009 (ip), vehicle: saline) 119 % of control; (endpoint: mean survival time, dose: 12.5 mg/kg/injection, schedule: Q01DX009 (ip), vehicle: suspension in saline) 283 % of control. Besides, the T/C is 295 % of control and 336 % of control and 337 % of control (endpoint: mean survival time, dose: 25.0 mg/kg/injection, schedule: Q01DX009 (ip), vehicle: suspension in saline); 88 % of control (endpoint: mean survival time, dose: 50.0 mg/kg/injection, schedule: Q01DX009 (ip), vehicle: saline).
Regarding `O=C1NC(=O)C2(CCc3ccccc32)N1` (configuration not stated), the T/C was 110 % of control under setting [4], 98 % of control under setting [5] and 96 % of control under setting [6].
Take `c1ccc(OCCC[P+](c2ccccc2)(c2ccccc2)c2ccccc2)cc1`: the T/C runs as follows: (endpoint: mean survival time, dose: 10.0 mg/kg/injection, schedule: Q01DX009 (ip), vehicle: saline) 105 % of control; (endpoint: mean survival time, dose: 20.0 mg/kg/injection, schedule: Q01DX009 (ip), vehicle: saline) 95 % of control; under setting [12], 95 % of control; under setting [7], 101 % of control; under setting [13], 113 % of control; under setting [8], 92 % of control. Moreover, the T/C reads like this: under setting [14], 111 % of control; under setting [4], 92 % of control.
In the case of `COC(=O)C1(C(=O)OC)CCCCC1=O`, the T/C was 98 % of control under setting [14]; 97 % of control under setting [4]; 95 % of control (endpoint: mean survival time, dose: 200.0 mg/kg/injection, schedule: Q01DX009 (ip), vehicle: saline with Tween-80); 94 % of control under setting [5]; 95 % of control (endpoint: mean survival time, dose: 400.0 mg/kg/injection, schedule: Q01DX009 (ip), vehicle: saline with Tween-80); 89 % of control under setting [6].

Source of the values: PubChem BioAssay AID256 (DTP/NCI, 2004).
